Results reported in patent US9211310B2, “Use of a Chinese medicine composition in preparing medicaments for treating secondary prevention of myocardial infarction” (TASLY PHARMACEUTICAL GROUP CO., LTD, priority 2010, dated 2015).

Tested on: patients after acute myocardial infarction
Assay: TCM symptom score, total and single (chest pain, chest tightness, short breath, fatigue, palpitation, spontaneous perspiration, pale complexion), same clinical trial
Type: in vivo, human
Text: 3508 patients who were in accordance with the diagnostic standards of AMI for 28 days to 2 years and differentiated as Qi deficiency and blood stagnation syndrome by TCM were studied. 0.5 g Chinese medicine composition prepared by the method of EXAMPLE 1 (Coded as QSYQ) was administrated half an hour after meal, 3 times per day.
They included the overall survival time, angina pectoris score, TCM symptom score and life quality score, where angina pectoris score, TCM symptom score and life quality score were evaluated at randomization, in 1st, 3rd, 6th, 9th, 12th month after treatment and 18th month after follow-up.
The analysis method referred to the angina pectoris score.

[1] = 9 months after treatment-baseline, FAS
[2] = 9 months after treatment-baseline, PP
[3] = 12 months after treatment-baseline, FAS

## CC(=O)Oc1ccccc1C(=O)O [Control group, aspirine]
6 months after treatment, PP
  chest pain score 0, percent of patients: (42.93%)
  chest pain score 3, number of patients: 539
  chest pain score 3, percent of patients: (37.75%)
  chest pain score 6, number of patients: 272
  chest pain score 6, percent of patients: (19.05%)
  chest pain score 9, number of patients: 4
  chest pain score 9, percent of patients: (0.28%)
  chest tightness score 0, number of patients: 613
  chest tightness score 0, percent of patients: (42.93%)
  chest tightness score 3, number of patients: 539
  chest tightness score 3, percent of patients: (37.75%)
  chest tightness score 6, number of patients: 272
  chest tightness score 6, percent of patients: (19.05%)
  chest tightness score 9, number of patients: 4
  chest tightness score 9, percent of patients: (0.28%)
[1]
  change of chest pain score 0, number of patients: 1022
  change of chest pain score 0, percent of patients: (59.80%)
  change of chest pain score 3, number of patients: 463
  change of chest pain score 3, percent of patients: (27.09%)
  change of chest pain score 6, number of patients: 124
  change of chest pain score 6, percent of patients: (7.26%)
  change of chest pain score 9, number of patients: 6
  change of chest pain score 9, percent of patients: (0.35%)
  change of chest pain score −3, number of patients: 81
  change of chest pain score −3, percent of patients: (4.74%)
  change of chest pain score −6, number of patients: 13
  change of chest pain score −6, percent of patients: (0.76%)
  change of chest pain score −9, number of patients: 0
  change of chest pain score −9, percent of patients: (0.00%)
  change of chest tightness score 0, number of patients: 1007
  change of chest tightness score 0, percent of patients: (58.92%)
  change of chest tightness score 3, number of patients: 534
  change of chest tightness score 3, percent of patients: (31.25%)
  change of chest tightness score 6, number of patients: 68
  change of chest tightness score 6, percent of patients: (3.98%)
  change of chest tightness score 9, number of patients: 4
  change of chest tightness score 9, percent of patients: (0.23%)
  change of chest tightness score −3, number of patients: 93
  change of chest tightness score −3, percent of patients: (5.44%)
  change of chest tightness score −6, number of patients: 3
  change of chest tightness score −6, percent of patients: (0.18%)
  change of chest tightness score −9, number of patients: 0
  change of chest tightness score −9, percent of patients: (0.00%)
[2]
  change of chest pain score 0, number of patients: 826
  change of chest pain score 0, percent of patients: (58.58%)
  change of chest pain score 3, number of patients: 409
  change of chest pain score 3, percent of patients: (29.01%)
  change of chest pain score 6, number of patients: 106
  change of chest pain score 6, percent of patients: (7.52%)
  change of chest pain score 9, number of patients: 4
  change of chest pain score 9, percent of patients: (0.28%)
  change of chest pain score −3, number of patients: 58
  change of chest pain score −3, percent of patients: (4.11%)
  change of chest pain score −6, number of patients: 7
  change of chest pain score −6, percent of patients: (0.50%)
  change of chest pain score −9, number of patients: 0
  change of chest pain score −9, percent of patients: (0.00%)
  change of chest tightness score 0, number of patients: 801
  change of chest tightness score 0, percent of patients: (56.81%)
  change of chest tightness score 3, number of patients: 476
  change of chest tightness score 3, percent of patients: (33.76%)
  change of chest tightness score 6, number of patients: 62
  change of chest tightness score 6, percent of patients: (4.40%)
  change of chest tightness score 9, number of patients: 3
  change of chest tightness score 9, percent of patients: (0.21%)
  change of chest tightness score −3, number of patients: 65
  change of chest tightness score −3, percent of patients: (4.61%)
  change of chest tightness score −6, number of patients: 3
  change of chest tightness score −6, percent of patients: (0.21%)
  change of chest tightness score −9, number of patients: 0
  change of chest tightness score −9, percent of patients: (0.00%)
9 months after treatment, FAS
  chest pain score 0, number of patients: 791
  chest pain score 0, percent of patients: (46.04%)
  chest pain score 3, number of patients: 618
  chest pain score 3, percent of patients: (35.97%)
  chest pain score 6, number of patients: 305
  chest pain score 6, percent of patients: (17.75%)
  chest pain score 9, number of patients: 4
  chest pain score 9, percent of patients: (0.23%)
  chest tightness score 0, number of patients: 791
  chest tightness score 0, percent of patients: (46.04%)
  chest tightness score 3, number of patients: 618
  chest tightness score 3, percent of patients: (35.97%)
  chest tightness score 6, number of patients: 305
  chest tightness score 6, percent of patients: (17.75%)
  chest tightness score 9, number of patients: 4
  chest tightness score 9, percent of patients: (0.23%)
9 months after treatment, PP
  chest pain score 0, number of patients: 661
  chest pain score 0, percent of patients: (46.71%)
  chest pain score 3, number of patients: 519
  chest pain score 3, percent of patients: (36.68%)
  chest pain score 6, number of patients: 233
  chest pain score 6, percent of patients: (16.47%)
  chest pain score 9, number of patients: 2
  chest pain score 9, percent of patients: (0.14%)
  chest tightness score 0, number of patients: 661
  chest tightness score 0, percent of patients: (46.71%)
  chest tightness score 3, number of patients: 519
  chest tightness score 3, percent of patients: (36.68%)
  chest tightness score 6, number of patients: 233
  chest tightness score 6, percent of patients: (16.47%)
  chest tightness score 9, number of patients: 2
  chest tightness score 9, percent of patients: (0.14%)
[3]
  change of chest pain score 0, number of patients: 962
  change of chest pain score 0, percent of patients: (56.29%)
  change of chest pain score 3, number of patients: 511
  change of chest pain score 3, percent of patients: (29.90%)
  change of chest pain score 6, number of patients: 150
  change of chest pain score 6, percent of patients: (8.78%)
  change of chest pain score 9, number of patients: 7
  change of chest pain score 9, percent of patients: (0.41%)
  change of chest pain score −3, number of patients: 70
  change of chest pain score −3, percent of patients: (4.10%)
  change of chest pain score −6, number of patients: 9
  change of chest pain score −6, percent of patients: (0.53%)
  change of chest pain score −9, number of patients: 0
  change of chest pain score −9, percent of patients: (0.00%)
  change of chest tightness score 0, number of patients: 933
  change of chest tightness score 0, percent of patients: (54.59%)
  change of chest tightness score 3, number of patients: 598
  change of chest tightness score 3, percent of patients: (34.99%)
  change of chest tightness score 6, number of patients: 87
  change of chest tightness score 6, percent of patients: (5.09%)
